Entries after “also recorded” stand apart in the source; their conditions may differ.
Legend:
carboxypeptidase Y = carboxypeptidase Y (Saccharomyces cerevisiae, UniProt P00729); experiment: Carboxypeptidase Y-mediated cleavage monitored by 31P-NMR; type: in vitro ADME; conditions: for time to complete conversion of the starting material: carboxypeptidase Y; for conversion of the starting material by carboxypeptidase Y: result in words
[1] = system: human embryonic lung (HEL) fibroblasts; experiment: Minimum cytotoxic concentration, HEL cell morphology
HSV-2 (G) = experiment: Anti-HSV-2; type: cell-based, herpes simplex virus type 2; conditions: HEL cell cultures
HSV-1 (KOS) = experiment: Anti-HSV-1; type: cell-based, herpes simplex virus type 1; conditions: HEL cell cultures
[2] = system: thymidine kinase-deficient (TK−) HSV-1 KOS strain; type: cell-based, herpes simplex virus type 1; conditions: HEL cell cultures; for Antiviral Activity EC50 HSV-1 TK (KOS): TK-deficient, ACV-resistant strain
HIV-1 = HIV-1 inhibition in MT-4 cell cultures; type: cell-based, human immunodeficiency virus type 1; conditions: HIV-1, MT-4 cells

carboxypeptidase Y, sequence (P00729 112-532): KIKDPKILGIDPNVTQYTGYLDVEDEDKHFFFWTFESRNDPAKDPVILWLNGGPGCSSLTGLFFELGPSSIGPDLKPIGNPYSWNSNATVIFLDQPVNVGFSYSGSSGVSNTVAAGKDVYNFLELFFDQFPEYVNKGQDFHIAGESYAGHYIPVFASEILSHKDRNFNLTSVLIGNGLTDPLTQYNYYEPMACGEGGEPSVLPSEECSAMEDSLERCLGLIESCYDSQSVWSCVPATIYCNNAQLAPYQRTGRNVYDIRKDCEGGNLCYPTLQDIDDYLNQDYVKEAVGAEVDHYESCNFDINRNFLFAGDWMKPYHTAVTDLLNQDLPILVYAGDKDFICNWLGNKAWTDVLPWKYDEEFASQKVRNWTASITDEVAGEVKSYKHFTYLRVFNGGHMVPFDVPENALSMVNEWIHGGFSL

| SMILES | Cytotoxicity MCC ([1]; Table 4 (HCMV/VZV assays)) [µM] | Antiviral Activity EC50 HSV-1 TK (KOS) [2] | Cytotoxicity MCC ([1]; Table 3 (HSV assays)) [µM] | also measured |
| --- | --- | --- | --- | --- |
| C[C@H](NP(=O)(OCC(CO)CCn1cnc2c(Cl)nc(N)nc21)Oc1ccccc1)C(=O)OCc1ccccc1 (mixture of isomers) [Compound 60] | >100 |  |  | time to complete conversion of the starting material (carboxypeptidase Y): ≤ 0.5 h; conversion of the starting material by carboxypeptidase Y (carboxypeptidase Y): completely converted and full |
| Nc1nc(O)c2ncn(CSC(CO)CO)c2n1 [Compound 3] |  |  |  | Antiviral Activity EC50 HSV-2 (G) (HSV-2 (G)): sub-micromolar activity; Antiviral Activity EC50 HSV-1 (KOS) (HSV-1 (KOS)): sub-micromolar activity |
| CC(C)OC(=O)[C@H](C)NP(=O)(OCC(COP(=O)(N[C@@H](C)C(=O)OC(C)C)Oc1cccc2ccccc12)OCn1cnc2c(=O)[nH]c(N)nc21)Oc1cccc2ccccc12 (stereo partly drawn) [Compound 15, 2-amino-9-{[(1,3-dihydroxypropan-2-yl)oxy]methyl}-6,9-dihydro-1H-purin-6-one-[1-naphthyl(isopropoxy-L-alaninyl)] diphosphate] | >100 | marginal activity | ≥100 |  |
| CC(C)OC(=O)[C@H](C)NP(=O)(OCC(CO)OCn1cnc2c(=O)[nH]c(N)nc21)Oc1cccc2ccccc12 (stereo partly drawn) [Compound 16, 2-amino-9-{[(1,3-dihydroxypropan-2-yl)oxy]methyl}-6,9-dihydro-1H-purin-6-one-[1-naphthyl(isopropoxy-L-alaninyl)]phosphate] | >100 | marginal activity | >100 | conversion of the starting material by carboxypeptidase Y (carboxypeptidase Y): slow and incomplete conversion; also recorded: partial |
| C[C@H](NP(=O)(OCC(COP(=O)(N[C@@H](C)C(=O)OCc1ccccc1)Oc1ccccc1)OCn1cnc2c(=O)[nH]c(N)nc21)Oc1ccccc1)C(=O)OCc1ccccc1 (stereo partly shown) [Compound 17] | >100 | considerable activity | >100 |  |
| C[C@H](NP(=O)(OCC(COP(=O)(N[C@@H](C)C(=O)OCc1ccccc1)Oc1cccc2ccccc12)OCn1cnc2c(=O)[nH]c(N)nc21)Oc1cccc2ccccc12)C(=O)OCc1ccccc1 (stereo partly shown) [Compound 18] | >50 |  |  | fold difference in EC50 values between HSV-1 TK+ and TK− strains [2]: < 2.5 fold |
| CC(C)(NP(=O)(OCC(COP(=O)(NC(C)(C)C(=O)OCc1ccccc1)Oc1ccccc1)OCn1cnc2c(=O)[nH]c(N)nc21)Oc1ccccc1)C(=O)OCc1ccccc1 (stereo not shown) [Compound 19] |  |  |  | fold difference in EC50 values between HSV-1 TK+ and TK− strains [2]: < 2.5 fold |
| CC(C)(NP(=O)(OCC(COP(=O)(NC(C)(C)C(=O)OCc1ccccc1)Oc1cccc2ccccc12)OCn1cnc2c(=O)[nH]c(N)nc21)Oc1cccc2ccccc12)C(=O)OCc1ccccc1 (stereo not shown) [Compound 21] |  | considerable activity | >100 |  |
| CC(C)(NP(=O)(OCC(CO)OCn1cnc2c(=O)[nH]c(N)nc21)Oc1cccc2ccccc12)C(=O)OCc1ccccc1 (stereo not shown) [Compound 22] | >50 |  | >100 | fold difference in EC50 values between HSV-1 TK+ and TK− strains [2]: < 2.5 fold |
| C[C@H](NP(=O)(OCC(CO)OCn1cnc2c(=O)[nH]c(N)nc21)Oc1cccc2ccccc12)C(=O)OCc1ccccc1 (stereo partly shown) [Compound 28] | >100 | considerable activity | >100 |  |
| C[C@H](NP(=O)(OCC(CCn1cnc2c(=O)[nH]c(/N=C/N(C)C)nc21)COP(=O)(N[C@@H](C)C(=O)OCc1ccccc1)Oc1ccccc1)Oc1ccccc1)C(=O)OCc1ccccc1 (stereo partly shown) [Compound 30] |  | inactive | >100 | Antiviral Activity EC50 HSV-2 (G) (HSV-2 (G)): inactive; Antiviral Activity EC50 HSV-1 (KOS) (HSV-1 (KOS)): inactive |
| C[C@H](NP(=O)(OCC(CCn1cnc2c(=O)[nH]c(/N=C/N(C)C)nc21)COP(=O)(N[C@@H](C)C(=O)OCc1ccccc1)Oc1cccc2ccccc12)Oc1cccc2ccccc12)C(=O)OCc1ccccc1 (stereo partly shown) [Compound 31] |  | inactive |  | Antiviral Activity EC50 HSV-2 (G) (HSV-2 (G)): inactive; Antiviral Activity EC50 HSV-1 (KOS) (HSV-1 (KOS)): inactive |
| C[C@H](NP(=O)(OCC(CCn1cnc2c(=O)[nH]c(N)nc21)COP(=O)(N[C@@H](C)C(=O)OCc1ccccc1)Oc1cccc2ccccc12)Oc1cccc2ccccc12)C(=O)OCc1ccccc1 (stereo partly shown) [Compound 37] | >50 | inactive |  | Antiviral Activity EC50 HSV-2 (G) (HSV-2 (G)): inactive; Antiviral Activity EC50 HSV-1 (KOS) (HSV-1 (KOS)): inactive |
| CC(C)(NP(=O)(OCC(CCn1cnc2c(=O)[nH]c(N)nc21)COP(=O)(NC(C)(C)C(=O)OCc1ccccc1)Oc1ccccc1)Oc1ccccc1)C(=O)OCc1ccccc1 (stereo not shown) [Compound 38] | >50 | inactive | >100 | Antiviral Activity EC50 HSV-2 (G) (HSV-2 (G)): inactive; Antiviral Activity EC50 HSV-1 (KOS) (HSV-1 (KOS)): inactive |
| CC(C)(NP(=O)(OCC(CO)CCn1cnc2c(=O)[nH]c(N)nc21)Oc1ccccc1)C(=O)OCc1ccccc1 (stereo not shown) [Compound 39] | >50 |  | >100 |  |
| CC(C)(NP(=O)(OCC(CCn1cnc2c(=O)[nH]c(N)nc21)COP(=O)(NC(C)(C)C(=O)OCc1ccccc1)Oc1cccc2ccccc12)Oc1cccc2ccccc12)C(=O)OCc1ccccc1 (stereo not shown) [Compound 40] | >50 | inactive | 100 | Antiviral Activity EC50 HSV-2 (G) (HSV-2 (G)): inactive; Antiviral Activity EC50 HSV-1 (KOS) (HSV-1 (KOS)): inactive |
| CC(C)(NP(=O)(OCC(CO)CCn1cnc2c(=O)[nH]c(N)nc21)Oc1cccc2ccccc12)C(=O)OCc1ccccc1 (stereo not shown) [Compound 41] | >50 |  | >100 |  |

| SMILES | Cytotoxicity MCC ([1]; Table 4 (HCMV/VZV assays)) [µM] | Antiviral Activity EC50 HSV-1 TK (KOS) [2] | Cytotoxicity MCC ([1]; Table 3 (HSV assays)) [µM] | also measured |
| --- | --- | --- | --- | --- |
| C[C@H](NP(=O)(OCC(CO)CCn1cnc2c(=O)[nH]c(N)nc21)Oc1ccccc1)C(=O)OCc1ccccc1 (stereo partly shown) [Compound 42] | >50 |  | >100 | selectivity index (ratio IC50/EC50) (HIV-1): > 15 |
| C[C@H](NP(=O)(OCC(CO)CCn1cnc2c(=O)[nH]c(N)nc21)Oc1cccc2ccccc12)C(=O)OCc1ccccc1 (stereo partly shown) [Compound 45] | >50 |  | >100 | conversion of the starting material by carboxypeptidase Y (carboxypeptidase Y): slow and incomplete conversion; also recorded: partial |
| C[C@H](NP(=O)(OCC(CCn1cnc2c(Cl)nc(N)nc21)COP(=O)(N[C@@H](C)C(=O)OCc1ccccc1)Oc1ccccc1)Oc1ccccc1)C(=O)OCc1ccccc1 (stereo partly shown) [Compound 59] |  |  |  | fold loss in antiviral activity versus mono-ProTide 60 (HIV-1): 7 fold |
| COc1nc(N)nc2c1ncn2CCC(COP(=O)(N[C@@H](C)C(=O)OCc1ccccc1)Oc1ccccc1)COP(=O)(N[C@@H](C)C(=O)OCc1ccccc1)Oc1ccccc1 (stereo partly shown) [Compound 61] | >50 |  |  |  |
| COc1nc(N)nc2c1ncn2CCC(COP(=O)(N[C@@H](C)C(=O)OCC(C)(C)C)Oc1cccc2ccccc12)COP(=O)(N[C@@H](C)C(=O)OCC(C)(C)C)Oc1cccc2ccccc12 (stereo partly shown) [Compound 62] | ≥20 |  | ≥100 |  |
| CCCOC(=O)[C@H](C)NP(=O)(OCC(CCn1cnc2c(OC)nc(N)nc21)COP(=O)(N[C@@H](C)C(=O)OCCC)Oc1cccc2ccccc12)Oc1cccc2ccccc12 (stereo partly shown) [Compound 63] | ≥50 |  | ≥100 | conversion of the starting material by carboxypeptidase Y (carboxypeptidase Y): fast conversion; also recorded: partial |
| CCC(C)(C)COC(=O)[C@H](C)NP(=O)(OCC(CCn1cnc2c(OC)nc(N)nc21)COP(=O)(N[C@@H](C)C(=O)OCC(C)(C)CC)Oc1cccc2ccccc12)Oc1cccc2ccccc12 (stereo partly shown) [Compound 64] |  |  | ≥100 |  |
| COc1nc(N)nc2c1ncn2CCC(CO)COP(=O)(N[C@@H](C)C(=O)OCc1ccccc1)Oc1ccccc1 (stereo partly shown) [Compound 66] |  | retention of some activity |  | selectivity index (ratio IC50/EC50) (HIV-1): 21 |
| COc1nc(N)nc2c1ncn2CCC(CO)COP(=O)(N[C@@H](C)C(=O)OCc1ccccc1)Oc1cccc2ccccc12 (stereo partly shown) [Compound 67] | >50 | retention of some activity |  |  |
| COc1nc(N)nc2c1ncn2CCC(CO)COP(=O)(N[C@@H](C)C(=O)OCC(C)(C)C)Oc1cccc2ccccc12 (stereo partly shown) [Compound 68] | >50 | retention of some activity |  |  |
| CCCOC(=O)[C@H](C)NP(=O)(OCC(CO)CCn1cnc2c(OC)nc(N)nc21)Oc1cccc2ccccc12 (stereo partly shown) [Compound 69] | ≥50 |  | 100 | time to complete conversion of the starting material (carboxypeptidase Y): ≤ 2 h; conversion of the starting material by carboxypeptidase Y (carboxypeptidase Y): complete conversion and full |
| COC(=O)[C@H](C)NP(=O)(OCC(CO)CCn1cnc2c(OC)nc(N)nc21)Oc1cccc2ccccc12 (stereo partly shown) [Compound 70] | ≥50 |  | ≥100 |  |
| CCC(C)(C)COC(=O)[C@H](C)NP(=O)(OCC(CO)CCn1cnc2c(OC)nc(N)nc21)Oc1cccc2ccccc12 (stereo partly shown) [Compound 71] | ≥50 |  | 100 |  |
| COc1nc(N)nc2c1ncn2CCC(CO)COP(=O)(N[C@@H](C)C(=O)OC1CCCCC1)Oc1cccc2ccccc12 (stereo partly shown) [Compound 72] |  | retention of some activity | ≥100 |  |
| CCOC(=O)[C@H](C)NP1(=O)OCC(OCn2cnc3c(=O)[nH]c(N)nc32)CO1 (stereo partly shown) [Compound 74] |  |  |  | selectivity index (ratio IC50/EC50) (HIV-1): > 7 |
| C[C@H](NP1(=O)OCC(OCn2cnc3c(Cl)nc(N)nc32)CO1)C(=O)OCc1ccccc1 (stereo partly shown) [Compound 75] |  |  |  | time to complete conversion of the starting material (carboxypeptidase Y): ≤ 1 h; conversion of the starting material by carboxypeptidase Y (carboxypeptidase Y): completely metabolised |
| CC(=O)OCC(COP(=O)(N[C@@H](C)C(=O)OCc1ccccc1)Oc1ccccc1)OCn1cnc2c(Cl)nc(N)nc21 (stereo partly shown) [Compound 77] |  |  |  | conversion of the starting material by carboxypeptidase Y (carboxypeptidase Y): quickly metabolised |
